Patent US8389568B2, “IDO inhibitors and methods of use thereof” (Lankenau Institute for Medical Research, priority 2007, dated 2013)
Where two headings read alike, the source gives them in different places.

Molecular target: human IDO (Homo sapiens, UniProt P14902)
Experiment: IDO inhibition enzyme assay (N-formylkynurenine/kynurenine formation read at 490 nm)
Assay type: biochemical
Procedure: Compounds of the instant invention were analyzed for inhibition of human IDO. The assay was conducted according to a literature protocol, with ascorbic acid and methylene blue serving the role of reductant (Littlejohn et al. (2000) Protein Expression and Purification, 19:22-29; Sono et al. (1989) J. Biol. Chem., 264:1616-1622). […] The enzyme assay monitored for formation of N-formylkynurenine by hydrolyzing the formyl group and spectrophotometrically analyzing for the conjugated imine generated from kynurenine and 4-(dimethylamino) benzaldehyde.
Specifically, the inhibition assays were performed in a 96-well microtiter plate as previously described with a small modification (Littlejohn et al. (2000) Prot. Expr. Purif., 19:22-29). Briefly, the reaction mixture contained 50 mM potassium phosphate buffer (pH 6.5), 40 mM ascorbic acid, 400 μg/ml catalase, 20 μM methylene blue and purified recombinant IDO(1) optimized based on its activity. The reaction mixture was added to the substrate, L-tryptophan (L-Trp), and the inhibitor. The L-Trp was serially diluted from 200 to 25 μM and the inhibitors were tested at two concentrations, 200 and 400 μM. The reaction was carried out at 37° C. for 60 minutes and stopped by adding 30% (w/v) trichloroacetic acid. The plate was heated at 65° C. for 15 minutes to convert formylkynurenine to kynurenine and then was spun at 6000 g for 5 minutes. Finally 100 μl supernatant from each well was transferred to a new 96 well plate and mixed with 2% (w/v) p-dimethylamino-benzaldehyde in acetic acid. The yellow color generated from the reaction with kynurenine was measured at 490 nm using a Synergy HT microtiter plate reader (Bio-Tek, Winooski, Vt.). The data was analyzed using Graph Pad Prism 4 software (Graph Pad Software Inc., San Diego, Calif.).

[1] = purified recombinant IDO(1), L-Trp substrate, ascorbic acid/methylene blue reductant, catalase, pH 6.5, 37° C. for 60 minutes, read-out: IC50

Chain of human IDO (P14902 whole entry): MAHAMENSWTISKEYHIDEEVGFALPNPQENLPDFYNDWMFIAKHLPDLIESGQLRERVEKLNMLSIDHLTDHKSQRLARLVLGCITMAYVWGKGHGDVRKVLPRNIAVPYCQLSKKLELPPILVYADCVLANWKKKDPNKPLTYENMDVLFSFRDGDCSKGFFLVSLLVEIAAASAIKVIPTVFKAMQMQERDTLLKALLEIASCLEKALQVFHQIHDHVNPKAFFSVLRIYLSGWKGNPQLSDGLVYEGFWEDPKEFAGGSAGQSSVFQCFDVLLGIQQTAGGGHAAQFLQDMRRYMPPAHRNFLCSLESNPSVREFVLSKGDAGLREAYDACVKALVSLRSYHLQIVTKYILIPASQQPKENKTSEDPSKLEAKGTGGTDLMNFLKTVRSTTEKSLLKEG

Molecule `CC1(C)OC2=C(C(=O)c3ccccc3C2=O)[C@H](O)[C@@H]1O` [Compound 12, (3S,4S)-3,4-dihydroxy-2,2-dimethyl-3,4-dihydro-2H benzo[g]chromene-5,10-dione] has an IC50 [1] of 1500 nM.
Molecule `C=CCN[C@H]1C2=C(OC(C)(C)[C@H]1O)C(=O)c1ccccc1C2=O` (stereo in doubt) [Compound 17, 4-(allylamino)-3-hydroxy-2,2-dimethyl-3,4-dihydro-2H-benzo[g]chromene-5,10-dione] has an IC50 [1] of 183 nM.
In the case of `CC1(C)OC2=C(C(=O)c3ccccc3C2=O)C2OC21` (centres unmarked) [Compound 14, 2,2-dimethyl-9a,9b-dihydro-1aH-benzo[g]oxireno[2,3-c]chromene-4,9(2H,3aH)-dione], the IC50 [1] is reported as 3300 nM.
For `COC(=O)C1(C)C=CC2=C(O1)C(=O)c1ccccc1C2=O` (centres unmarked) [Compound 29, methyl 2-methyl-5,10-dioxo-5,10-dihydro-2H-benzo[g]chromene-2-carboxylate], the IC50 [1] was 161 nM.
For `CC1(C)C=CC2=C(O1)C(=O)c1ccccc1C2=O` [Compound 8, 2,2-dimethyl-2H-benzo[g]chromene-5,10-dione], the IC50 was 155 nM.
Work on `CC1(C)C=CC2=C(O1)C(=O)c1cccc(O)c1C2=O` [Compound 28, 6-hydroxy-2,2-dimethyl-2H-benzo[g]chromene-5,10-dione] yielded an IC50 [1] of 58 nM.
For `CC1(C)OC2=C(C(=O)c3ccccc3C2=O)[C@@H](O)[C@@H]1Br` (relative stereo) [Compound 27], the IC50 [1] was 290 nM.
In the case of `CCCCN[C@H]1C2=C(OC(C)(C)[C@H]1O)C(=O)c1ccccc1C2=O` (stereo in doubt) [Compound 19, 4-(butylamino)-3-hydroxy-2,2-dimethyl-3,4-dihydro-2H-benzo[g]chromene-5,10-dione], the IC50 [1] is reported as 160 nM.
`CCCCN[C@H]1C2=C(OC(C)(C)[C@@H]1O)C(=O)c1ccccc1C2=O` (stereo in doubt) [Compound 20, 4-(butylamino)-3-hydroxy-2,2-dimethyl-3,4-dihydro-2H-benzo[g]chromene-5,10-dione] gave an IC50 [1] of 70 nM.
Molecule `CO[C@H]1C2=C(OC(C)(C)[C@@H]1O)C(=O)c1ccccc1C2=O` (stereo in doubt) [Compound 22, 3-hydroxy-4-methoxy-2,2-dimethyl-3,4-dihydro-2H-benzo[g]chromene-5,10-dione] has an IC50 [1] of 3960 nM.
`CO[C@H]1C2=C(OC(C)(C)[C@H]1O)C(=O)c1ccccc1C2=O` (stereo in doubt) [Compound 21, 3-hydroxy-4-methoxy-2,2-dimethyl-3,4-dihydro-2H-benzo[g]chromene-5,10-dione] was tested, and the IC50 [1] was 976 nM.
